Patent US11298364B2, “Methods and products for preventing and/or treating microorganism infections comprising iron chelators and non-iron porphyrins” (The University of Adelaide, priority 2015, dated 2022)

Tests used:
[1] = tested on: planktonic clinical MRSA isolate MRSA b; experiment: MIC of gel-released drugs, broth dilution (Example 6); type: cell-based, Staphylococcus aureus; conditions: MRSA b (resistant to 4 antibiotics)
Experimental: (§1) Bacterial strains: S. aureus ATCC 25923 was purchased from American Type Culture Collection (Manassas, Va., USA). Clinical MRSA isolate strains were obtained from Adelaide Pathology Partners (Mile End, SA, Australia).
(§2) The MIC was evaluated as the lowest drug concentration preventing bacterial growth.

[2] = tested on: planktonic clinical MRSA isolate MRSA e; experiment: as above; type: cell-based, Staphylococcus aureus; conditions: MRSA e (resistant to 9 antibiotics)
Experimental: as §1, §2

[3] = tested on: planktonic S. aureus ATCC 25923; experiment: as above; type: cell-based, Staphylococcus aureus; conditions: S. aureus 25923
Experimental: as §1, §2

[4] = tested on: planktonic clinical MRSA isolate MRSA d; experiment: as above; type: cell-based, Staphylococcus aureus; conditions: MRSA d (resistant to 7 antibiotics)
Experimental: as §1, §2

[5] = tested on: planktonic clinical MRSA isolate MRSA c; experiment: as above; type: cell-based, Staphylococcus aureus; conditions: MRSA c (resistant to 5 antibiotics)
Experimental: as §1, §2

[6] = tested on: planktonic clinical MRSA isolate MRSA a; experiment: as above; type: cell-based, Staphylococcus aureus; conditions: MRSA a (resistant to 4 antibiotics)
Experimental: as §1, §2

[7] = tested on: S. aureus ATCC 25923 biofilms; experiment: S. aureus biofilm killing, 96-well biofilm, AlamarBlue viability assay; type: cell-based, Staphylococcus aureus; conditions: 2 h
Experimental: Single colonies of S. aureus ATCC 25923 (American Type Culture Collection, Manassas, Va., USA) were immersed in 0.45% saline (Sigma Aldrich, Germany), adjusted to 1.0±0.1 McFarland units (3×10^8 colony forming units/ml), and diluted 1:15 in nutrient broth (Oxoid Ltd., England). The bacteria-broth mixture was added into 96-well plates at 150 μl per well (Costar®, Corning Incorporated, NY, USA). Incubation for 72 hours at 37° C. on a rotating plate set at 70 rpm (3D Gyratory Mixer, Ratek Instruments, Australia) assured extensive S. aureus biofilm growth.
Biofilms were washed twice with phosphate buffered saline (PBS, Sigma Aldrich, Germany) to remove planktonic cells, before treating the biofilms with various concentrations of i) Deferiprone (“Def”; 3-hydroxy-1,2-dimethylpyridin-4(1H)-one, Sigma Aldrich, Germany), ii) Gallium-Protoporphyrin (“GAPP”; Frontier Scientific, UT, USA), iii) a concurrent combination of both compounds and iv) a consecutive combination of both compounds. To prepare the treatments, Def was dissolved in water and GaPP was dissolved in an aqueous 0.03% solution of Tween® 80 (polyoxyethylene sorbitan […], Sigma Aldrich, Germany), i.e. above the critical micelle concentration (CMC) of Tween® 80 ([…]). Controls included bacterial wells without treatment (i.e. 100% bacterial growth, negative control), blank wells without bacteria (i.e. 0% growth, positive control) and bacterial wells with Tween® 80 treatment (as a control for GaPP dilutions). After 2 hours incubation of each treatment at 37° C. on a rotating plate, a second washing step with PBS followed to remove the treatments.
Bacterial viability was assessed using the AlamarBlue cell viability assay as described in Peeters, E. et al. (2008) Journal of Microbiological Methods, 72(2): p. 157-165. A 10% AlamarBlue dilution (Resazurin, Life Technologies, Australia) in nutrient broth was prepared and added to each well. Plates were incubated in the dark at 37° C. on a rotating plate. Fluorescence of Resorufin was measured hourly on a FLUOstar OPTIMA plate reader (BMG LABTECH, Germany). The method was set at bottom reading and fluorescence was measured at λexcitation 530 nm/λemission 590 nm. Maximum intensities were typically reached after 6 hours incubation and used for quantification according to Equation 1:
Bacterial viability was determined as the percentage of biofilm killing (% BK), where IC represents the fluorescence intensity of the controls (i.e. 100% bacterial growth) and IT indicates the maximum intensity of the treatments. Both IC and IT were corrected by the intensity of background (i.e. 0% bacterial growth).

[8] = Drug release from hydrogel into phosphate buffered saline; type: physicochemical
Experimental: Drug release: Five millilitre of gel was prepared in a Falcon tube and allowed to solidify, after which 10 ml release medium (phosphate buffered saline, Sigma Aldrich) was added. The tube was incubated at 37° C. on a rotating platform for 20 days. […] The concentration of […] quantified by UV-Vis spectroscopy (Evolution 201 UV-Vis Spectrophotometer, Thermo Fisher Scientific, Scoresby, VIC, Australia) at 280 nm and 405 nm, respectively, by interpolating from a standard curve.

[9] = tested on: L929 cells (mouse fibroblast cell line); experiment: LDH cell viability test; type: cell-based; conditions: 2 h
Experimental: (§3) L929 cells (mouse fibroblast cell line) and Nuli-1 cells (human airway epithelial cell line) were obtained from ATCC (American Type Culture Collection, Manassas, Va., USA). The Nuli-1 cell line was cultured in Bronchial Epithelial Cell Growth Medium (Lonza, Australia) and L929 cells were grown in Dulbecco's Modified Eagle Medium (Sigma-Aldrich, Germany). Cells were maintained in a fully humidified incubator with 5% CO2 at 37° C.
(§4) The lactate dehydrogenase (LDH) bioassay (Roche Diagnostics Corporation, Indianapolis, Ind., USA) was performed to assess the cytotoxic effects of Def and GaPP. Briefly, cells were seeded at 1×10^4 into each well in 100 μl in quadruplicate wells of 96-well flat-bottom plates and incubated for 24 hours (37° C., 5% CO2) to allow attachment of cells. To assess the toxicity of the dual treatment, firstly, 100 μl of Def (20 mM) was added to each well. After 2 hours incubation, cells were washed three times with PBS and were exposed to different concentrations of GaPP (100, 200, 300, 400 and 500 μg/ml) for another 2 hours. In addition, cells were separately treated with either Def or GaPP for 2 hours. The OD was measured at 490 nm.

[10] = tested on: Nuli-1 cells (human airway epithelial cell line); experiment: LDH cell viability test; type: cell-based; conditions: 2 h
Experimental: as §3, §4

[11] = tested on: S. aureus; experiment: Plate assay for anti-bacterial properties (agar holes filled with vehicle); type: cell-based; conditions: in vehicle: 20 mM Def and/or 200 μg/ml GaPP, 24 hours
Experimental: To investigate the anti-bacterial properties of Def and GaPP individually, or with Def and GaPP in combination, a plate assay was used. Briefly, liquid nutrient agar was mixed with an aliquot of a S. aureus or Pseudomonas aeruginosa overnight culture and poured into Petri dishes. After the agar was solidified, holes (0.9 cm diameter) were punched into the agar and aspirated. Subsequently, the holes were filled with 200 μl of a vehicle with and without Def/GaPP. Following incubation at 37° C. for 24 hours, the inhibition diameter was assessed as a measure of efficacy against S. aureus or Pseudomonas aeruginosa bacteria.

[12] = tested on: planktonic S. aureus ATCC 25923; experiment: Minimal inhibitory concentration, broth microdilution (Example 1); type: cell-based, Staphylococcus aureus; conditions: 20 hours, 37° C.
Experimental: MIC values were assessed for the individual compounds Def and GaPP against planktonic S. aureus using standard methods, specifically colony suspension method and broth microdilution as described in Wiegand, I. et al. (2008) Nat Protoc, 3(2): p. 163-75. Briefly, single colonies of S. aureus ATCC 25923 were suspended in 0.45% saline and adjusted to 0.5 McFarland units. The bacterial suspension was 1:100 diluted with nutrient broth and plated into 96-well plates. Various treatment dilutions of Def and GaPP were added, followed by incubation of the plate at 37° C. for 20 hours. The MIC was determined as the lowest drug concentration preventing turbidity.

[13] = Staphylococcus aureus, read-out: minimal inhibitory concentration

Molecule `C=CC1=C(C)C2=[N+]3C1=Cc1c(C)c(C=C)c4[n]1[Ga-]31[n]3c(c(C)c(CCC(=O)O)c3=CC3=[N+]1C(=C4)C(C)=C3CCC(=O)O)=C2` (stereo not shown) [GaPP, gallium-protoporphyrin IX] has a minimal inhibitory concentration [1] of 0.74 µg/mL, a minimal inhibitory concentration [2] of 1.48 µg/mL and a minimal inhibitory concentration [3] of 0.90 µg/mL. It also gave a minimal inhibitory concentration [4] of 1.48 µg/mL, a minimal inhibitory concentration [5] of 1.48 µg/mL and a minimal inhibitory concentration [6] of 1.48 µg/mL. For the same molecule, the “Biofilm killing (%) by single treatment GaPP” value ([7]; GaPP 1 μg/ml) was 9.04%, the “Biofilm killing (%) by single treatment GaPP” value ([7]; GaPP 5 μg/ml) was 32.18% and the “Biofilm killing (%) by single treatment GaPP” value ([7]; GaPP 10 μg/ml) was 41.99%. The “Biofilm killing (%) by single treatment GaPP” value ([7]; GaPP 50 μg/ml) was 52.90%, the “Biofilm killing (%) by single treatment GaPP” value ([7]; GaPP 100 μg/ml) was 69.86% and the “release of GaPP (percentage of the original concentration in the gel)” value ([8]; after 460 hours, 37° C., PBS) was 20-25%. The “incorporated GaPP released from the hydrogel” value ([8]; after 20 days) was “approximately 25%”, the “cell viability (LDH assay) vs negative control” value ([9]; GaPP 500 μg/ml) was “induced cell toxicity” and the “cell viability (LDH assay) vs negative control” value ([9]; GaPP 100-400 μg/ml) was “no significant effect”. For the same molecule, the “cell viability (LDH assay) vs negative control” value ([10]; GaPP 500 μg/ml) was “induced cell toxicity”, the “cell viability (LDH assay) vs negative control” value ([10]; GaPP 100-400 μg/ml) was “no significant effect” and the “anti-bacterial activity (inhibition on plate)” value [11] was “significant anti-bacterial activity”. For the same molecule, the MIC [12] was 0.4 µg/mL.
`Cc1c(O)c(=O)ccn1C` [Def, 3-hydroxy-1,2-dimethylpyridin-4(1H)-one, reference compound] showed an MIC [1, 13] of 56 µg/mL, an MIC [2, 13] of 56 µg/mL and an MIC ([3]; Staphylococcus aureus, ATCC25923, read-out: minimal inhibitory concentration) of 28 µg/mL. It also gave an MIC [4, 13] of 56 µg/mL, an MIC [5, 13] of 56 µg/mL and an MIC [6, 13] of 56 µg/mL. The “Biofilm killing (%) by single treatment Def” value ([7]; Def 0.5 mM) was 6.09%, the “Biofilm killing (%) by single treatment Def” value ([7]; Def 1.5 mM) was 7.65% and the “Biofilm killing (%) by single treatment Def” value ([7]; Def 5 mM) was 12.07%. The “Biofilm killing (%) by single treatment Def” value ([7]; Def 10 mM) was 22.88%, the “Biofilm killing (%) by single treatment Def” value ([7]; Def 20 mM) was 34.00% and the biofilm reduction plateau ([7]; Def at concentrations above 20 mM) was “approximately 34%”. For the same molecule, the “time to complete release from hydrogel” value ([8]; 37° C., PBS) was 48 to 72 h, the “release of Def (percentage of the original concentration in the gel)” value ([8]; after approximately 48-72 hours, 37° C., PBS) was 100% and the “cell viability (LDH assay) vs negative control” value ([9]; Def 20 mM) was “no statistically significant difference”. The “cell viability (LDH assay) vs negative control” value ([10]; Def 20 mM) was “no statistically significant difference”, the “anti-bacterial activity (inhibition on plate)” value [11] was “relatively little anti-bacterial activity” and the MIC ([12]; Staphylococcus aureus, ATCC25923, read-out: MIC) was 2500 µM.
